In patent US6541497B1, “Hypoglycemic and hypolipidemic compounds” (Eli Lilly and Company, priority 1996, dated 2003):

What was measured:
[1] = tested on: Male obese-diabetic viable yellow (A^vy) mice; experiment: Serum/blood glucose after 14 days of feeding compound admixed in chow; format: in vivo
Description: (§1) Male obese-diabetic viable yellow (A^vy) mice were divided into two groups of 6 each. One group was fed repelletized Purina 5008 Chow and the second group was fed a repelletized chow consisting of Purina 5008 Chow, admixed with varying doses of the candidate compound. Blood samples were taken before the experiment was initiated and 14 days after initiation. Body weight and food consumption were monitored. The blood glucose level after 14 days of treatment was measured and recorded as a percent of the initial value, compared to the untreated control (first) group. The results are presented in the table below and include the dose of the candidate compound as a weight percent of the amount incorporated into the diet. The positive control is a known hypoglycemic agent (J. Med. Chem. 35:2617, 1992) administered in the same way as a compound of the present invention.

[2] = tested on: Male obese-diabetic viable yellow (A^vy) mice; experiment: Serum/plasma triglycerides after 14 days in the same feeding study; format: in vivo; conditions: untreated about 4 mmol/mL
Description: as §1
In the same feeding study described above, plasma triglycerides were measured against a glycerol standard using reagents from Sigma Kit No. 339 (St. Louis, Mo.), adapted for assay on the Monarch System (Instrumentation Laboratory, Lexington, Mass.). Day 14 levels are recorded below as mM of triglycerides per mL. Serum triglyceride values for untreated animals averaged about 4 mmol/mL.

[3] = dose 0.03 (mg/100 g food) in diet
[4] = dose 0.01 (mg/100 g food) in diet

Row | melting point | Compound | Serum Glucose after 14 days % of day 0 value [1, 3] | Serum Triglyceride after 14 days [2, 3] [mM] | also measured
1 | 204 to 207 °C | O=C(N[C@@H](Cc1ccc(OCCc2coc(-c3ccccc3)n2)cc1)C(=O)[O-])OCc1ccccc1.[Na+] [Example No. 2, O-[2-(2-Phenyl-4-oxazolyl)ethyl]-N-CBZ-L-tyrosine, sodium salt] | 67 % of day 0 value | 3.3 | 
2 | 180 to 182 °C | Cc1ccc(C(=O)N[C@@H](Cc2ccc(OCCc3coc(-c4ccccc4)n3)cc2)C(=O)O)cc1 [Example No. 6, O-[2-(2-Phenyl-4-oxazolyl)ethyl]-N-4-methylbenzoyl-L-tyrosine] | 65 % of day 0 value | 2.3 | 
3 | 158 to 161 °C | O=C(N[C@@H](Cc1ccc(OCCc2coc(-c3ccccc3)n2)cc1)C(=O)O)c1ccc(Cl)cc1 [Example 13, O-[2-(2-Phenyl-4-oxazolyl)ethyl]-N-4-chlorobenzoyl-L-tyrosine] |  |  | 
4 | 149 to 151 °C (dec.) | O=C(NC(Cc1cccc(OCCc2coc(-c3ccccc3)n2)c1)C(=O)O)OCc1ccccc1 (stereo not drawn) [Example No. 21, α-(3-[2-(2-Phenyl-4-oxazolyl)ethoxy]benzyl)-N-CBZ glycine] | 48 % of day 0 value | 1.4 | 
5 | 146 to 151 °C | O=C(Cc1ccccc1)N[C@@H](Cc1ccc(OCCc2coc(-c3ccccc3)n2)cc1)C(=O)O [Example No. 5, O-[2-(2-Phenyl-4-oxazolyl)ethyl]-N-phenylacetyl-L-tyrosine] | 57 % of day 0 value |  | 
6 | 94 to 97 °C | O=C(COc1ccccc1)N[C@@H](Cc1ccc(OCCc2coc(-c3ccccc3)n2)cc1)C(=O)O [Example 12, O-[2-(2-Phenyl-4-oxazolyl)ethyl]-N-phenoxyacetyl-L-tyrosine] |  |  | 
7 | 80 to 83 °C | O=C(N[C@@H](Cc1ccc(OCCc2cccc3ccccc23)cc1)C(=O)O)OCc1ccccc1 [Example 15, O-[2-(1-Naphthyl)ethyl]-N-CBZ-L-tyrosine] |  |  | 
8 | 173 to 176 °C | O=C(N[C@@H](Cc1ccc(OCCc2coc(-c3ccccc3)n2)cc1)C(=O)O)OCc1ccc(Br)cc1 [Example 16, O-[2-(2-Phenyl-4-oxazolyl)ethyl]-N-(4-bromobenzyloxycarbonyl)-L-tyrosine] |  |  | 
9 | 177 to 180.5 °C | O=C(N[C@@H](Cc1ccc(OCCc2coc(-c3ccccc3)n2)cc1)C(=O)O)OCc1ccc(C(F)(F)F)cc1 [Example 17, O-[2-(2-Phenyl-4-oxazolyl)ethyl]-N-(4-trifluoromethylbenzyloxycarbonyl)-L-Tyrosine] |  |  | 
10 | 196.5 to 198 °C | O=C(NCc1ccccc1)N[C@@H](Cc1ccc(OCCc2coc(-c3ccccc3)n2)cc1)C(=O)O [Example 20, O-[2-(2-Phenyl-4-oxazolyl)ethyl]-N-(N′-Benzylcarbamoyl)-L-tyrosine] |  |  | 
11 | 231 to 235 °C | N[C@@H](Cc1ccc(OCCc2coc(-c3ccccc3)n2)cc1)C(=O)O [Example 3, O-[2-(2-Phenyl-4-oxazolyl)ethyl]-L-tyrosine] |  |  | 

Continued, compound first:

Row | Compound | melting point | Serum Glucose after 14 days % of day 0 value [1, 3] | Serum Triglyceride after 14 days [2, 3] [mM] | also measured
12 | 4-[2-(2-Phenyl-4-oxazolyl)ethoxy]benzyl-N-CBZ-L-serine [Example No. 7] |  | 34 % of day 0 value | 0.4 | 
13 | CC(C)(Oc1ccc(Cl)cc1)C(=O)O [clofibric acid, reference compound] |  |  |  | Serum Triglyceride after 14 days ([2]; dose 0.10 (mg/100 g food) in diet): 1.9 mM
14 | N[C@@H](Cc1ccc(OCCc2coc(-c3ccccc3)n2)cc1)C(=O)N(O)C(=O)OCc1ccccc1 [Example 11, O-[2-(2-Phenyl-4-oxazolyl)ethyl]-N-CBZ-L-tyrosine hydroxamic acid] | 198 to 199 °C |  |  | 
15 | O=C(N[C@@H](COCc1cccc(OCCc2coc(-c3ccccc3)n2)c1)C(=O)O)OCc1ccccc1 [Example No. 24, O-(3-(2-(2-Phenyl-4-oxazolyl)ethoxy]benzyl)-N-CBZ serine] | 55 to 57 °C |  |  | Serum Glucose after 14 days % of day 0 value [1, 4]: 88 % of day 0 value; Serum Triglyceride after 14 days [2, 4]: 0.3 mM
16 | CN(C(=O)OCc1ccccc1)[C@@H](Cc1ccc(OCCc2coc(-c3ccccc3)n2)cc1)C(=O)O [Example No. 8, O-[2-(2-Phenyl-4-oxazolyl)ethyl]-N-methyl-N-CBZ-L-tyrosine] |  |  | 3.6 | Serum Glucose after 14 days % of day 0 value ([1]; dose 0.06 (mg/100 g food) in diet): 75 % of day 0 value
17 | O=C(N[C@@H](Cc1ccc(OCCc2coc(-c3ccccc3)n2)cc1)C(=O)O)c1ccccc1 [Example No. 4, O-[2-(2-Phenyl-4-oxazolyl)ethyl]-N-BZ-L-tyrosine] |  | 60 % of day 0 value | 1.5 | 
18 | Cc1oc(-c2ccccc2)nc1CCOc1ccc(CC(NC(=O)OCc2ccccc2)C(=O)O)cc1 (racemic) [Example No. 9, O-[2-(5-Methyl-2-phenyl-4-oxazolyl)ethyl]-N-CBZ-D,L-tyrosine] | 142 to 143 °C | 66 % of day 0 value | 2.5 | 
19 | COc1ccc(COC(=O)N[C@@H](Cc2ccc(OCCc3coc(-c4ccccc4)n3)cc2)C(=O)O)cc1 [Example 18, O-[2-(2-Phenyl-4-oxazolyl)ethyl]-N-(4-methoxybenzyloxycarbonyl)-L-tyrosine] | 132.5 to 135.5 °C |  |  | 
20 | O=C(N[C@@H](Cc1ccc(OCCc2coc(-c3ccccc3)n2)cc1)C(=O)O)OCc1ccccc1 [Example No. 1, O-[2-(2-Phenyl-4-oxazolyl)ethyl]-N-CBZ-L-tyrosine] | 105 to 111 °C | 49 % of day 0 value | 1.3 | 
21 | O=C(O)[C@H](Cc1ccc(OCCc2coc(-c3ccccc3)n2)cc1)NS(=O)(=O)Cc1ccccc1 [Example 14, O-[2-(2-Phenyl-4-oxazolyl)ethyl]-N-phenylmethylsulfonyl-L-tyrosine] | 141 to 143 °C |  |  | 
22 | Cc1oc(-c2ccccc2)nc1CCOc1ccc(C[C@H](NC(=O)OCc2ccccc2)C(=O)O)cc1 [Example No. 22, O-[2-(5-Methyl-2-phenyl-4-oxazolyl)ethyl]-N-CBZ-L-tyrosine] | 75 to 95 °C | 53 % of day 0 value |  | 
23 | NC(=O)[C@H](Cc1ccc(OCCc2coc(-c3ccccc3)n2)cc1)NC(=O)OCc1ccccc1 [Example No. 10, O-[2-(2-Phenyl-4-oxazolyl)ethyl]-N-CBZ-L-tyrosine carboxamide] |  | 88 % of day 0 value |  | 
24 | CCCCc1ccc(COC(=O)N[C@@H](Cc2ccc(OCCc3coc(-c4ccccc4)n3)cc2)C(=O)O)cc1 [Example 19, O-[2-(2-Phenyl-4-oxazolyl)ethyl]-N-(4-n-Butylbenzyloxycarbonyl)-L-tyrosine] | 86 to 89 °C |  |  | 
